The supplement of paper PMC12406974

Tests used:
Experiment in all cases: maximum observed lethal fraction; higher = more cell death
U2OS BAX/BAK1 DKO = system: U2OS BAX/BAK1 DKO
U2OS BCL2L12-KO = system: U2OS BCL2L12-KO
U2OS PTBP1-KO = system: U2OS PTBP1-KO
U2OS = system: U2OS
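Further: FLICK assay: SYTOX Green fluorescence of dead cells tracked over time after drugging in 96-well plates, with total cell counts taken from Triton X-100 lysed wells.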

CN(C)C/C=C/C(=O)Nc1ccc(C(=O)N2CCC[C@@H](Nc3ncc(Cl)c(-c4c[nH]c5ccccc45)n3)C2)cc1 [THZ531]
maximum observed lethal fraction
Details	0.01 µM	0.0316 µM	0.1 µM	0.316 µM	1 µM	3.16 µM	10 µM
U2OS	0.049	0.0521	0.0575	0.271	0.325	0.46	0.923
U2OS BAX/BAK1 DKO	0.061	0.0622	0.0635	0.0888	0.105	0.0957	0.188
U2OS BCL2L12-KO	0.0636	0.0649	0.0776	0.465	0.359	0.489	0.903
U2OS PTBP1-KO	0.0612	0.0612	0.0684	0.17	0.346	0.314	0.836

O=C(CCCCCCC(=O)Nc1ccccc1)NO [Vorinostat]
maximum observed lethal fraction
Details	0.1 µM	0.316 µM	1 µM	3.16 µM	10 µM	31.6 µM	100 µM
U2OS	0.0571	0.0602	0.0901	0.458	0.659	0.778	0.811
U2OS BAX/BAK1 DKO	0.0548	0.0545	0.0635	0.0731	0.0736	0.081	0.084
U2OS BCL2L12-KO	0.0673	0.0704	0.185	0.586	0.804	0.824	0.899
U2OS PTBP1-KO	0.0673	0.0682	0.0906	0.316	0.481	0.558	0.513

CC(=O)[C@]1(O)Cc2c(O)c3c(c(O)c2[C@@H](O[C@H]2C[C@H](N)[C@H](O)[C@H](C)O2)C1)C(=O)c1ccccc1C3=O [Idarubicin]
maximum observed lethal fraction
Details	0.001 µM	0.00316 µM	0.01 µM	0.0316 µM	0.1 µM	0.316 µM	1 µM
U2OS	0.0637	0.0722	0.0707	0.166	0.666	0.792	0.604
U2OS BAX/BAK1 DKO	0.0756	0.0795	0.0849	0.0871	0.212	0.18	0.193
U2OS BCL2L12-KO	0.0766	0.088	0.0897	0.231	0.74	0.724	0.321
U2OS PTBP1-KO	0.077	0.0792	0.0832	0.2	0.633	0.589	0.305

CC(C)C[C@H](NC(=O)[C@H](Cc1ccccc1)NC(=O)c1cnccn1)B(O)O [Bortezomib]
maximum observed lethal fraction
Details	0.001 µM	0.00316 µM	0.01 µM	0.0316 µM	0.1 µM	0.316 µM	1 µM
U2OS	0.0526	0.193	0.757	0.865	0.9	0.904	0.917
U2OS BAX/BAK1 DKO	0.059	0.0694	0.096	0.27	0.378	0.387	0.443
U2OS BCL2L12-KO	0.0699	0.0922	0.345	0.8	0.791	0.889	0.904
U2OS PTBP1-KO	0.0725	0.108	0.418	0.637	0.731	0.791	0.82

C=CC(=O)Nc1ccc(C(=O)Nc2[nH]nc3c2CN(C(=O)N[C@H](CN(C)C)c2ccccc2)C3(C)C)cc1 [YKL-5-124]
maximum observed lethal fraction
Details	0.0316 µM	0.1 µM	0.316 µM	1 µM	3.16 µM	10 µM	31.6 µM
U2OS	0.0634	0.0827	0.0923	0.161	0.221	0.274	0.461
U2OS BAX/BAK1 DKO	0.0674	0.0739	0.0839	0.0802	0.0829	0.0948	0.1
U2OS BCL2L12-KO	0.0697	0.0761	0.0812	0.0841	0.0923	0.115	0.49
U2OS PTBP1-KO	0.0724	0.0809	0.0854	0.0868	0.0884	0.1	0.252

Nc1ccc(-c2ccc3ncc4ccc(=O)n(-c5cccc(C(F)(F)F)c5)c4c3c2)cn1 [Torin2]
maximum observed lethal fraction
Details	0.0316 µM	0.1 µM	0.316 µM	1 µM	3.16 µM	10 µM	31.6 µM
U2OS	0.0812	0.0904	0.197	0.299	0.435	0.589	0.396
U2OS BAX/BAK1 DKO	0.0705	0.0756	0.0765	0.0833	0.0776	0.0881	0.272
U2OS BCL2L12-KO	0.104	0.181	0.249	0.362	0.467	0.629	0.443
U2OS PTBP1-KO	0.0906	0.107	0.196	0.276	0.363	0.436	0.421

CC[C@@]1(O)C(=O)OCc2c1cc1n(c2=O)Cc2cc3ccccc3nc2-1 [Camptothecin]
maximum observed lethal fraction
Details	0.01 µM	0.0316 µM	0.1 µM	0.316 µM	1 µM	3.16 µM	10 µM
U2OS	0.0607	0.0661	0.0732	0.0916	0.379	0.625	0.786
U2OS BAX/BAK1 DKO	0.0607	0.0659	0.0708	0.0816	0.0795	0.0879	0.0915
U2OS BCL2L12-KO	0.0758	0.083	0.0852	0.101	0.307	0.664	0.8
U2OS PTBP1-KO	0.0712	0.0841	0.0812	0.0849	0.107	0.295	0.328
